Source: patent publication US9951058B2, “Compound, pharmaceutically acceptable salt or optical isomer thereof, method for preparing the same, and pharmaceutical composition for prevention or treatment of viral diseases containing same as active ingredient” (Korea Research Institute of Chemical Technology, priority 2012, dated 2018)
Converted amounts (≈) assume the structure as drawn.

Columns and labels:
HRV 14 = test: Cytopathic effect (CPE) inhibition assay; type: cell-based, human rhinovirus; conditions: Human rhinovirus sp., HeLa, 72 h, host cell HeLa, 3 days, MEM/2% FBS, MTT assay; read-out: EC50 HRV 14
HRV 21 = test: Cytopathic effect (CPE) inhibition assay; type: cell-based, human rhinovirus; conditions: Human rhinovirus sp., 72 h; host cell HeLa, 3 days, MEM/2% FBS, MTT assay; read-out: EC50 HRV 21
HRV 71 = test: Cytopathic effect (CPE) inhibition assay; type: cell-based, human rhinovirus; conditions: Human rhinovirus sp., 72 h; host cell HeLa, 3 days, MEM/2% FBS, MTT assay; read-out: EC50 HRV 71
[1] = system: coxsackievirus B1 (Cox B1); test: Multicycle cytopathic effect (CPE) reduction assay; type: cell-based; conditions: Enterovirus B, B1, 72 h, read-out: EC50 CoxB1
[2] = system: coxsackievirus B3 (Cox B3); test: Multicycle cytopathic effect (CPE) reduction assay; type: cell-based; conditions: Enterovirus B, B3, 72 h, read-out: EC50 CoxB3
poliovirus 3 (PV3) = test: microbe, parasite or virus in culture; type: cell-based; conditions: Enterovirus C, 72 h, read-out: EC50 PV3
in vitro = conditions: human
[3] = Cytotoxicity (CC50) in multicycle CPE reduction assay, MTS; conditions: human

CNC(=O)C(=O)NC12C(=O)c3ccccc3C1(O)Oc1cc(C(C)C)ccc12 (centres unmarked) [Example 27, N1-(4b-hydroxy-7-isopropyl-10-oxo-4b, 10-dihydro-9bH-indeno[1,2-b]benzofuran-9b-yl)-N2-methyl oxal amide]
EC50 (HRV 14): < 1 µg/mL
EC50 (HRV 21): > 10 µg/mL
EC50 (HRV 71): > 10 µg/mL
EC50 [1]: < 0.1 µg/mL
EC50 [2]: < 0.1 µg/mL
EC50 (poliovirus 3 (PV3)): < 10 µg/mL
CC50 (in vitro): > 10 µg/mL
CC50 at 3 days [3]: > 10 µg/mL

Cc1cccc(C)c1NC(=O)C(=O)NC12C(=O)c3cccc([N+](=O)[O-])c3C1(O)Oc1cc(C(C)C)ccc12 (centres unmarked) [Example 26, N1-(2,6-dimethylphenyl)-N2-(4b-hydroxy-7-isopropyl-4-nitro-10-oxo-4b, 10-dihydro-9bH-indeno[1,2-b]benzofuran-9b-yl)oxal amide]
EC50 (HRV 14): < 10 µg/mL
EC50 (HRV 21): > 10 µg/mL
EC50 (HRV 71): > 10 µg/mL
EC50 [1]: < 10 µg/mL
EC50 [2]: < 10 µg/mL
EC50 (poliovirus 3 (PV3)): > 10 µg/mL
CC50 (in vitro): > 10 µg/mL
CC50 at 3 days [3]: > 10 µg/mL

CC(C)c1ccc2c(c1)OC1(O)c3ccccc3C(=O)C21NC(=O)C(=O)Cc1ccc(O)cc1 (centres unmarked) [Example 9, N-(4b-hydroxy-7-isopropyl-10-oxo-9b, 10-dihydro-4bH-indeno[1,2-b]benzofuran-9b-yl)-3-(4-hydroxyphenyl)-2-oxo propanamide]
EC50 (HRV 14): > 3.76 µg/mL
EC50 (HRV 21): > 3.76 µg/mL
EC50 (HRV 71): > 3.76 µg/mL
EC50 [1]: 0.013 µg/mL (≈ 0.0284 µM)
EC50 [2]: 0.015 µg/mL (≈ 0.0328 µM)
EC50 (poliovirus 3 (PV3)): < 1 µg/mL
CC50 (in vitro): 3.76 µg/mL (≈ 8.22 µM)
CC50 at 3 days [3]: 9.21 µg/mL (≈ 20.1 µM)

CC(C)c1ccc2c(c1)OC1(O)c3ccccc3C(=O)C21NC#N (centres unmarked) [Example 46, N-(4b-hydroxy-7-isopropyl-10-oxo-4b, 10-dihydro-9bH-indeno[1,2-b]benzofuran-9b-yl)cyanamide]
EC50 (HRV 14): > 10 µg/mL
EC50 (HRV 21): > 10 µg/mL
EC50 (HRV 71): > 10 µg/mL
EC50 [1]: < 10 µg/mL
EC50 [2]: < 10 µg/mL
EC50 (poliovirus 3 (PV3)): > 10 µg/mL
CC50 (in vitro): > 10 µg/mL
CC50 at 3 days [3]: > 10 µg/mL

CC(C)CC(=O)C(=O)NC12C(=O)c3c(N)cccc3C1(O)Oc1cc(C(C)C)ccc12 (centres unmarked) [Example 49, N-(1-amino-4b-hydroxy-7-isopropyl-10-oxo-4b, 10-dihydro-9bH-indeno[1,2-b]benzofuran-9b-yl)-4-methyl-2-oxo pentanamide]
EC50 (HRV 14): < 0.1 µg/mL
EC50 (HRV 21): > 10 µg/mL
EC50 (HRV 71): > 10 µg/mL
EC50 [1]: < 0.01 µg/mL
EC50 [2]: < 0.01 µg/mL
EC50 (poliovirus 3 (PV3)): < 0.1 µg/mL
CC50 (in vitro): > 10 µg/mL
CC50 at 3 days [3]: > 10 µg/mL

CC(C)c1ccc2c(c1)OC1(O)c3ccccc3C(=O)C21N/C(=N\C(=O)OC(C)(C)C)NC(=O)OC(C)(C)C (centres unmarked) [Example 55]
EC50 (HRV 14): < 10 µg/mL
EC50 (HRV 21): > 10 µg/mL
EC50 (HRV 71): > 10 µg/mL
EC50 [1]: < 1 µg/mL
EC50 [2]: < 1 µg/mL
EC50 (poliovirus 3 (PV3)): > 10 µg/mL
CC50 (in vitro): > 10 µg/mL
CC50 at 3 days [3]: > 10 µg/mL

CC(C)c1ccc2c(c1)OC1(O)c3c(cccc3[N+](=O)[O-])C(=O)C21NC(=O)C(=O)CCc1ccccc1 (centres unmarked) [Example 53, N-(4b-hydroxy-7-isopropyl-4-nitro-10-oxo-4b, 10-dihydro-9bH-indeno[1,2-b]benzofuran-9b-yl)-2-oxo-4-phenyl butanamide]
EC50 (HRV 14): > 4.8 µg/mL
EC50 (HRV 21): > 4.8 µg/mL
EC50 (HRV 71): > 4.8 µg/mL
EC50 [1]: < 10 µg/mL
EC50 [2]: < 10 µg/mL
EC50 (poliovirus 3 (PV3)): > 10 µg/mL
CC50 (in vitro): 4.8 µg/mL (≈ 9.59 µM)
CC50 at 3 days [3]: > 10 µg/mL

CCOC(=O)C(=O)NC12C(=O)c3cccc([N+](=O)[O-])c3C1(O)Oc1cc(C(C)C)ccc12 (centres unmarked) [Example 33, Ethyl 2-((4b-hydroxy-7-isopropyl-4-nitro-10-oxo-4b, 10-dihydro-9bH-indeno[1,2-b]benzofuran-9b-yl)amino)-2-oxo acetate]
EC50 (HRV 14): > 10 µg/mL
EC50 (HRV 21): > 10 µg/mL
EC50 (HRV 71): > 10 µg/mL
EC50 [1]: < 10 µg/mL
EC50 [2]: < 10 µg/mL
EC50 (poliovirus 3 (PV3)): > 10 µg/mL
CC50 (in vitro): > 10 µg/mL
CC50 at 3 days [3]: > 10 µg/mL

CC(=O)C(=O)NC12C(=O)c3c(N)cccc3C1(O)Oc1cc(C(C)C)ccc12 (centres unmarked) [Example 22, N-(1-amino-4b-hydroxy-7-isopropyl-10-oxo-4b, 10-dihydro-9bH-indeno[1,2-b]benzofuran-9b-yl)-2-oxo propanamide]
EC50 (HRV 14): < 0.01 µg/mL
EC50 (HRV 21): < 10 µg/mL
EC50 (HRV 71): 8.5 µg/mL (≈ 22.3 µM)
EC50 [1]: < 0.01 µg/mL
EC50 [2]: < 0.01 µg/mL
EC50 (poliovirus 3 (PV3)): < 0.1 µg/mL
CC50 (in vitro): > 10 µg/mL
CC50 at 3 days [3]: > 10 µg/mL

CC(C)c1ccc2c(c1)OC1(O)c3ccccc3C(=O)C21NC(=O)C(=O)CC(=O)c1ccncc1 (centres unmarked) [Example 42, N-(4b-hydroxy-7-isopropyl-10-oxo-4b, 10-dihydro-9bH-indeno[1,2-b]benzofuran-9b-yl)-2,4-dioxo-4-(pyridyn-4-yl)butanamide]
EC50 (HRV 14): < 10 µg/mL
EC50 (HRV 21): > 10 µg/mL
EC50 (HRV 71): > 10 µg/mL
EC50 [1]: < 0.1 µg/mL
EC50 [2]: < 0.1 µg/mL
EC50 (poliovirus 3 (PV3)): > 10 µg/mL
CC50 (in vitro): > 10 µg/mL
CC50 at 3 days [3]: > 10 µg/mL

Cc1cccc(C)c1NC(=O)C(=O)NC12C(=O)c3ccccc3C1(O)Oc1cc(C(C)C)ccc12 (centres unmarked) [Example 20, N1-(2,6-dimethylphenyl)-N2-(4b-hydroxy-7-isopropyl-10-oxo-4b, 10-dihydro-9bH-indeno[1,2-b]benzofuran-9b-yl)oxal amide]
EC50 (HRV 14): < 10 µg/mL
EC50 (HRV 21): > 10 µg/mL
EC50 (HRV 71): > 10 µg/mL
EC50 [1]: < 0.1 µg/mL
EC50 [2]: < 0.1 µg/mL
EC50 (poliovirus 3 (PV3)): < 10 µg/mL
CC50 (in vitro): > 10 µg/mL
CC50 at 3 days [3]: > 10 µg/mL

Cc1cc2c(cc1C)C1(NC(=O)C(=O)c3c[nH]c4ccccc34)C(=O)c3ccccc3C1(O)O2 (centres unmarked) [Example 13, N-(4b-hydroxy-7,8-dimethyl-10-oxo-9b, 10-dihydro-9bH-indeno[1,2-b]benzofuran-9b-yl)-(1H-indo1-3-yl)-2-oxo acetamide]
EC50 (HRV 14): 1.85 µg/mL (≈ 4.09 µM)
EC50 (HRV 21): > 8.41 µg/mL
EC50 (HRV 71): > 8.41 µg/mL
EC50 [1]: 0.061 µg/mL (≈ 0.135 µM)
EC50 [2]: 0.13 µg/mL (≈ 0.287 µM)
EC50 (poliovirus 3 (PV3)): 1.98 µg/mL (≈ 4.38 µM)
CC50 (in vitro): 8.41 µg/mL (≈ 18.6 µM)
CC50 at 3 days [3]: 8.31 µg/mL (≈ 18.4 µM)

CC(C)c1ccc2c(c1)OC1(O)c3ccccc3C(=O)C21NC(=O)C(=O)c1cccs1 (centres unmarked) [Example 2, N-(4b-hydroxy-7-isopropyl-10-oxo-9b, 10-dihydro-4bH-indeno[1,2-b]benzofuran-9b-yl)-2-oxo-2-(thiopen-2-yl)acetamide]
EC50 (HRV 14): < 0.1 µg/mL
EC50 (HRV 21): > 8.57 µg/mL
EC50 (HRV 71): > 8.57 µg/mL
EC50 [1]: < 0.01 µg/mL
EC50 [2]: < 0.01 µg/mL
EC50 (poliovirus 3 (PV3)): < 1 µg/mL
CC50 (in vitro): 8.57 µg/mL (≈ 19.8 µM)
CC50 at 3 days [3]: 9.02 µg/mL (≈ 20.8 µM)

CCC(C)C(=O)C(=O)NC12C(=O)c3c(N)cccc3C1(O)Oc1cc(C(C)C)ccc12 (centres unmarked) [Example 40, N-(1-amino-4b-hydroxy-7-isopropyl-10-oxo-4b, 10-dihydro-9bH-indeno[1,2-b]benzofuran-9b-yl)-3-methyl-2-oxo pentanamide]
EC50 (HRV 14): < 0.1 µg/mL
EC50 (HRV 21): > 10 µg/mL
EC50 (HRV 71): > 10 µg/mL
EC50 [1]: < 0.01 µg/mL
EC50 [2]: < 0.01 µg/mL
EC50 (poliovirus 3 (PV3)): < 0.1 µg/mL
CC50 (in vitro): > 10 µg/mL
CC50 at 3 days [3]: > 10 µg/mL

Cc1cc2c(cc1C)C1(NC(=O)C(=O)c3ccccc3)C(=O)c3ccccc3C1(O)O2 (centres unmarked) [Example 12, N-(4b-hydroxy-7,8-dimethyl-10-oxo-9b, 10-dihydro-4bH-indeno[1,2-b]benzofuran-9b-yl)-2-oxo-2-phenyl acetamide]
EC50 (HRV 14): 2.08 µg/mL (≈ 5.03 µM)
EC50 (HRV 21): > 10 µg/mL
EC50 (HRV 71): > 10 µg/mL
EC50 [1]: 0.015 µg/mL (≈ 0.0363 µM)
EC50 [2]: 0.064 µg/mL (≈ 0.155 µM)
EC50 (poliovirus 3 (PV3)): 9.8 µg/mL (≈ 23.7 µM)
CC50 (in vitro): > 10 µg/mL
CC50 at 3 days [3]: > 10 µg/mL

CCOC(=O)C(=O)NC12C(=O)c3c(N)cccc3C1(O)Oc1cc(C(C)C)ccc12 (centres unmarked) [Example 36, Ethyl 2-((1-amino-4b-hydroxy-7-isopropyl-10-oxo-4b, 10-dihydro-9bH-indeno[1,2-b]benzofuran-9b-yl)amino)-2-oxo acetate]
EC50 (HRV 14): < 1 µg/mL
EC50 (HRV 21): > 10 µg/mL
EC50 (HRV 71): > 10 µg/mL
EC50 [1]: < 0.1 µg/mL
EC50 [2]: < 0.1 µg/mL
EC50 (poliovirus 3 (PV3)): < 10 µg/mL
CC50 (in vitro): > 10 µg/mL
CC50 at 3 days [3]: > 10 µg/mL
